In US8426408B2, “Pyrimidine inhibitors of kinases” (AbbVie Inc., priority 2009, dated 2013):

Experiments:
Format in all cases: biochemical
[1] = biological target: T1, Aurora B (Homo sapiens, UniProt Q96GD4); assay: Aurora B enzyme inhibition (time-resolved fluorescence, histone H3 peptide); conditions: 1 mM ATP
T1 construct: Active Aurora B enzyme (recombinant residues 1-344)
Description: To determine Aurora B activity of representative compounds of the invention, Active Aurora B enzyme (recombinant residues 1-344) and INCENP (recombinant GST fusion protein (Upstate)) were incubated in wells of a 384 well plate with biotinylated histone H3 peptide residues 1-21 (Upstate), 1 mM ATP, and various concentrations of inhibitors in a HEPES buffer, pH 7.4 containing MgCl2, sodium othrovanadate, and Triton X-100. After 1 hour, the reaction was stopped with EDTA and anti-phospho-histone H3 Europium Cryptate (Cis-Bio) and SA-APC (Phycolink, Prozyme) were added to detect the phosphopeptide. The amount of phosphorylation was determined by the time-resolved fluorescence ratio of signals at 665 nm and 615 nm. The IC50's were calculated by an exponential fit of the inhibition values with the inhibitor concentrations using Assay Explorer software.

[2] = biological target: T2, Aurora A (Homo sapiens, UniProt O14965); assay: Aurora A enzyme inhibition (time-resolved fluorescence, STK substrate-2); conditions: 1 mM ATP
T2 sequence (O14965 1-403): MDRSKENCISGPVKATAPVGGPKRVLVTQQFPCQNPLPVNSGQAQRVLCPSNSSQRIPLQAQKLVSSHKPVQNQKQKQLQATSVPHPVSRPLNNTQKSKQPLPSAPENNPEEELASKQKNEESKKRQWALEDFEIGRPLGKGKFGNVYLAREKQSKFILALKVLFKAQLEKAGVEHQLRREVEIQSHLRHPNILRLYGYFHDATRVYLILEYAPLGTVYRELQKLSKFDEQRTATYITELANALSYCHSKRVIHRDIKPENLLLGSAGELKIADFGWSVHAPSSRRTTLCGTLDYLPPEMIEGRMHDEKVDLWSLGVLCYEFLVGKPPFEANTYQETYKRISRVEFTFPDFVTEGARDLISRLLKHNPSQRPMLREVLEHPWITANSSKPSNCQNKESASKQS
Description: To determine Aurora A and C activity of representative compounds of the invention, Active Aurora A or C enzyme was incubated in wells of a 384 well plate with biotinylated STK substrate-2 (Upstate), 1 mM ATP, and various concentrations of inhibitors in a Hepes buffer, pH 7.4 containing MgCl2, sodium othrovanadate, and Triton X-100. After 1 hour, the reaction was stopped with EDTA and anti-phospho-STK antibody Europium Cryptate (Upstate) and SA-XL665 (Upstate) were added to detect the phosphopeptide. The amount of phosphorylation was determined by the time-resolved fluorescence ratio of signals at 665 nm and 615 nm. The IC50s were calculated by an exponential fit of the inhibition values with the inhibitor concentrations using Assay Explorer software.

[3] = biological target: KDR (Homo sapiens, UniProt P35968); assay: KDR HTRF in vitro kinase assay; design: purified enzyme (His6-KDR 789-1354, MW 63 kD); His6 (N); conditions: 1 mM ATP; read-out: KDR enzyme inhibition data (Ki)
Sequence of KDR (P35968 789-1354): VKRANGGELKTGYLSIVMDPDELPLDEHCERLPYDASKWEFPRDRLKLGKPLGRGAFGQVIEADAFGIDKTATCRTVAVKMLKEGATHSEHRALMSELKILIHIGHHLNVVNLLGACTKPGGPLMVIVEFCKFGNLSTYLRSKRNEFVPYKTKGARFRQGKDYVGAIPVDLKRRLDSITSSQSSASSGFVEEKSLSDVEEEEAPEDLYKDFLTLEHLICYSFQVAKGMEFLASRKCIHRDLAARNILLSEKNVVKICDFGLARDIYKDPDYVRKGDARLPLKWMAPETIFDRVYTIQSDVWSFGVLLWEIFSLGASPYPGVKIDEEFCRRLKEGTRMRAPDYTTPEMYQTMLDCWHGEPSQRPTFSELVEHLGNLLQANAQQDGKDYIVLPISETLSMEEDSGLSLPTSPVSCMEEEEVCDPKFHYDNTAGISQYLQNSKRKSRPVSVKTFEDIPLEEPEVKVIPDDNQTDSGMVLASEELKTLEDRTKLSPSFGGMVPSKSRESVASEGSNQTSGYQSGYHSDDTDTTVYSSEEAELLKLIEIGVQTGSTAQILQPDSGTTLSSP
Description: To determine the activity of the various kinases, a homogenous time-resolved fluorescence (HTRF) in vitro kinase assay was used. (Mathis, G., HTRF® Technology. J Biomol Screen, 1999. 4(6): p. 309-314; Alfred J. Kolb, Paul V. Kaplita, David J. Hayes, Young-Whan Park, Christine Pernell, John S. Major and Gerard Mathis, Drug Discovery Today, 1998, 3, 333-342.)
For example for KDR, 7 ng/well of purified enzyme (His6-KDR 789-1354, MW 63 kD) was mixed with 0.5 μM N-biotinylated substrate (Biotin-Ahx-AEEEYFFLA-amide (SEQ. ID. 1)), various concentrations of inhibitor in reaction buffer (50 mM HEPES, pH 7.1, 10 mM MgCl2, 2 mM MnCl2, 0.1% BSA and 1 mM DTT, 40 L final volume), ATP (1 mM final conc.) in a black 384-well plate. After 60 minutes incubation at room temperature, the reaction was quenched by addition of a buffered EDTA solution (final approximate concentrations: 30 mM EDTA, 0.1% BSA, 0.1% Triton X-100 and 0.24M KF) and a solution of revelation agents (to give 0.084 ng/well streptavidin-XL-665 (Cis-Bio) and 6.5 ng/well antiphsophotyrosine mAb PT66-K Europium kryptate) was added to the reaction mixture. The quenched reaction was allowed to stand at room temperature for 3 hours and was then read in a time-resolved fluorescence detector (InVision, Perkin-Elmer) at 620 nm and 665 nm sequentially with excitation. The ratio between the signal of 620 nm and 665 nm was used in the calculation of the IC50.

Measured: Ki

T1 sequence (Q96GD4 whole entry, the tested form may be a part): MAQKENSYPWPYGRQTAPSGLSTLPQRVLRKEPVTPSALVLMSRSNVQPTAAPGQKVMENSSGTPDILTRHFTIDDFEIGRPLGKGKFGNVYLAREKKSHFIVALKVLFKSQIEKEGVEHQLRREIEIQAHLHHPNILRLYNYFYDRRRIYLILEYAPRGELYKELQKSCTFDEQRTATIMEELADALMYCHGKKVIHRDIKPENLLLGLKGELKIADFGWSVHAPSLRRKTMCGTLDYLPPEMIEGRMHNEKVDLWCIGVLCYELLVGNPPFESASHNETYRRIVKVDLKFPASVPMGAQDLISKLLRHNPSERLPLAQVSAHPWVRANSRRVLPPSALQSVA
T1 sequence (Q9NQS7 826-918 partner limits assumed): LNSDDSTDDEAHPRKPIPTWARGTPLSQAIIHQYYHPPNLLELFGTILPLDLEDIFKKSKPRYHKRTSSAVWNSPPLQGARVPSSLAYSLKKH

Cn1cc(Nc2ncc(Cl)c(N[C@@H]3[C@H]4CC[C@H](C4)[C@@H]3C(N)=O)n2)cn1.Cn1cc(Nc2ncc(Cl)c(N[C@H]3[C@@H]4CC[C@@H](C4)[C@H]3C(N)=O)n2)cn1 (mixture of isomers) [Example 56, (1R,2S,3R,4S)-3-({5-chloro-2-[(1-methyl-1H-pyrazol-4-yl)amino]pyrimidin-4-yl}amino)bicyclo[2.2.1]heptane-2-carboxamide and (1S,2R,3S,4R)-3-({5-chloro-2-[(1-methyl-1H-pyrazol-4-yl)amino]pyrimidin-4-yl}amino)bicyclo[2.2.1]heptane-2-carboxamide]
< 100 nM: all assays above

CCn1cc(Nc2ncc(C(F)(F)F)c(N[C@H]3[C@@H](C(N)=O)[C@@H]4C=C[C@H]3C4)n2)cn1 [Example 62, (1S,2S,3R,4R)-3-{[2-[(1-ethyl-1H-pyrazol-4-yl)amino]-5-(trifluoromethyl)pyrimidin-4-yl]amino}bicyclo[2.2.1]hept-5-ene-2-carboxamide]
< 100 nM: all assays above

NC(=O)[C@@H]1[C@H](Nc2nc(Nc3cnn(CC(F)(F)F)c3)ncc2Cl)[C@H]2C=C[C@@H]1C2 [Example 66, (1S,2S,3R,4R)-3-[(5-chloro-2-{[1-(2,2,2-trifluoroethyl)-1H-pyrazol-4-yl]amino}pyrimidin-4-yl)amino]bicyclo[2.2.1]hept-5-ene-2-carboxamide]
< 100 nM: all assays above

NC(=O)[C@@H]1[C@H](Nc2nc(Nc3cnn([C@H]4CCNC4)c3)ncc2Cl)[C@H]2C=C[C@@H]1C2 [Example 72, (1S,2S,3R,4R)-3-{[5-chloro-2-({1-[(3S)-pyrrolidin-3-yl]-1H-pyrazol-4-yl}amino)pyrimidin-4-yl]amino}bicyclo[2.2.1]hept-5-ene-2-carboxamide]
< 100 nM: all assays above

NC(=O)[C@@H]1[C@H]2CC[C@H](C2)[C@@H]1Nc1nc(Nc2cnn(CCN3CCOCC3)c2)ncc1Cl.NC(=O)[C@H]1[C@@H]2CC[C@@H](C2)[C@H]1Nc1nc(Nc2cnn(CCN3CCOCC3)c2)ncc1Cl (mixture of isomers) [Example 60, (1R,2S,3R,4S)-3-[(5-chloro-2-{[1-(2-morpholin-4-ylethyl)-1H-pyrazol-4-yl]amino}pyrimidin-4-yl)amino]bicyclo[2.2.1]heptane-2-carboxamide and (1S,2R,3S,4R)-3-[(5-chloro-2-{[1-(2-morpholin-4-ylethyl)-1H-pyrazol-4-yl]amino}pyrimidin-4-yl)amino]bicyclo[2.2.1]heptane-2-carboxamide]
< 100 nM: all assays above

CNC(=O)Cn1cc(Nc2ncc(Br)c(N[C@H]3[C@@H](C(N)=O)[C@@H]4C=C[C@H]3C4)n2)cn1 [Example 77, (1S,2S,3R,4R)-3-{[5-bromo-2-({1-[2-(methylamino)-2-oxoethyl]-1H-pyrazol-4-yl}amino)pyrimidin-4-yl]amino}bicyclo[2.2.1]hept-5-ene-2-carboxamide]
< 100 nM: all assays above

CCN(CC)CCn1cc(Nc2ncc(Cl)c(N[C@H]3[C@@H](C(N)=O)[C@@H]4C=C[C@H]3C4)n2)cn1 (racemic) [Example 35, (1S,2S,3R,4R)-3-{[5-chloro-2-({1-[2-(diethylamino)ethyl]-1H-pyrazol-4-yl}amino)pyrimidin-4-yl]amino}bicyclo[2.2.1]hept-5-ene-2-carboxamide and (1R,2R,3S,4S)-3-{[5-chloro-2-({1-[2-(diethylamino)ethyl]-1H-pyrazol-4-yl}amino)pyrimidin-4-yl]amino}bicyclo[2.2.1]hept-5-ene-2-carboxamide]
< 100 nM: all assays above

NC(=O)[C@@H]1[C@H](Nc2nc(Nc3cnn([C@@H]4CCNC4)c3)ncc2Cl)[C@H]2C=C[C@@H]1C2 [Example 73, (1S,2S,3R,4R)-3-{[5-chloro-2-({1-[(3R)-pyrrolidin-3-yl]-1H-pyrazol-4-yl}amino)pyrimidin-4-yl]amino}bicyclo[2.2.1]hept-5-ene-2-carboxamide]
< 100 nM: all assays above

(1S,2S,3R,4R)—N-cyclopropyl-3-{[2-[(1-methyl-1H-pyrazol-4-yl)amino]-5-(trifluoromethyl)pyrimidin-4-yl]amino}bicyclo[2.2.1]hept-5-ene-2-carboxamide and (1R,2R,3S,4S)—N-cyclopropyl-3-{[2-[(1-methyl-1H-pyrazol-4-yl)amino]-5-(trifluoromethyl)pyrimidin-4-yl]amino}bicyclo[2.2.1]hept-5-ene-2-carboxamide [Example 70]
< 100 nM: all assays above

NC(=O)Cn1cc(Nc2ncc(Br)c(N[C@H]3[C@@H](C(N)=O)[C@@H]4C=C[C@H]3C4)n2)cn1 [Example 76, (1S,2S,3R,4R)-3-[(2-{[1-(2-amino-2-oxoethyl)-1H-pyrazol-4-yl]amino}-5-bromopyrimidin-4-yl)amino]bicyclo[2.2.1]hept-5-ene-2-carboxamide]
< 100 nM: all assays above

Cn1cc(Nc2ncc(Cl)c(N[C@H]3[C@@H](C(N)=O)[C@@H]4C=C[C@H]3C4)n2)cn1 [Example 41, (1S,2S,3R,4R)-3-({5-chloro-2-[(1-methyl-1H-pyrazol-4-yl)amino]pyrimidin-4-yl}amino)bicyclo[2.2.1]hept-5-ene-2-carboxamide]
< 100 nM: all assays above

NC(=O)[C@@H]1[C@H](Nc2nc(Nc3cnn(CCO)c3)ncc2C(F)(F)F)[C@H]2C=C[C@@H]1C2 [Example 63, (1S,2S,3R,4R)-3-{[2-{[1-(2-hydroxyethyl)-1H-pyrazol-4-yl]amino}-5-(trifluoromethyl)pyrimidin-4-yl]amino}bicyclo[2.2.1]hept-5-ene-2-carboxamide]
< 100 nM: all assays above

NC(=O)[C@@H]1[C@H](Nc2nc(Nc3cnn(CCN4CCCCC4)c3)ncc2Cl)[C@H]2C=C[C@@H]1C2.NC(=O)[C@H]1[C@@H](Nc2nc(Nc3cnn(CCN4CCCCC4)c3)ncc2Cl)[C@@H]2C=C[C@H]1C2 (mixture of isomers) [Example 36, (1S,2S,3R,4R)-3-[(5-chloro-2-{[1-(2-piperidin-1-ylethyl)-1H-pyrazol-4-yl]amino}pyrimidin-4-yl)amino]bicyclo[2.2.1]hept-5-ene-2-carboxamide and (1R,2R,3S,4S)-3-[(5-chloro-2-{[1-(2-piperidin-1-ylethyl)-1H-pyrazol-4-yl]amino}pyrimidin-4-yl)amino]bicyclo[2.2.1]hept-5-ene-2-carboxamide]
< 100 nM: all assays above
